A short description of test [1]: Bile salt hydrolase (BSH) activity on MRS agar with 0.5% sodium taurocholic acid. As to conditions: MRS agar with 0.5% (w/v) TDCA, anaerobic, 37° C., about 72 hr. As for the experimental part: In order to confirm the presence or absence of bile salt hydrolase (BSH) activity as the function of each of the lactic-acid bacteria, an experiment was performed in accordance with the method described in Dashkevicz and Feighner (1989). Briefly, an agar medium was prepared by adding 0.5% (w/v) sodium taurocholic acid (TDCA, Sigma-Aldrich, Germany) to MRS.

Test [2] is described as follows: Ability to produce hydrogen peroxide (tetramethylbenzidine MRS agar). To be noted: anaerobic, 37° C., about 48-72 hr, color change after exposure to air. As for the experimental part: For the ability to produce hydrogen peroxide as the function of each of the lactic-acid bacteria, an agar medium was prepared by adding 0.25 mg/ml of tetramethylbenzidine (Sigma-Aldrich, Germany) and […] to MRS (McGroarty et al., 1992). Here, the additives were added at about 50° C. after autoclaving of the MRS agar. Each of the lactic-acid bacteria was inoculated into the completely hardened test agar medium, placed in an anaerobic jar, and cultured at 37° C. for about 48-72 hr. After culture, the lactic-acid bacteria were taken out of the anaerobic jar and exposed to air, and the colony and the surrounding color change were observed.

The nature of test [3]: ABTS radical-scavenging experiment with lactic-acid bacteria lysate. It is filed as biochemical. As to conditions: for ABTS radical-scavenging activity: lactic-acid bacteria lysate, dark reaction 10 min, 734 nm; for antioxidant activity, ranking among strains: lysate, at 10 mg and above. Here is the method: In order to evaluate the antioxidant activity of each of the lactic-acid bacteria strains, a radical-scavenging experiment was conducted using 2,2′-azino-bis(3-ethylbenzthiazoline-6-sulfonic acid) (ABTS, Sigma-Aldrich, Germany). Briefly, lactic-acid bacteria were cultured for about 24 hr, allowed to react with lysozyme (Sigma-Aldrich, Germany) for 2 hr at 37° C., and lysed through sonication to obtain each lactic-acid bacteria lysate. The solid content thereof was measured using a water content analyzer, and a stock solution was adjusted to a concentration of 50 mg/ml. To prepare ABTS, 14 mM ABTS stock solution and 4.9 mM potassium persulfate were mixed at a volume ratio of 1:1, followed by dark reaction overnight so that the resulting mixture turned blue-green. A working solution obtained by diluting the corresponding solution until an absorbance OD-734 reached about 0.7 was added with 10% of each lactic-acid bacteria lysate sample, followed by dark reaction for 10 min, after which the absorbance at a wavelength of 734 nm was measured, and each measured value was substituted into the following equation. ABTS radical-scavenging activity (%)={1−(ODsample/ODcontrol)}×100

Test [4] relates to Candida albicans KCTC7678 (CA). Kind of test: Coaggregation of lactic-acid bacteria on vaginitis pathogen. It is filed as cell-based. As to conditions: at 8 hr. As for the experimental part:
(§1) Briefly, lactic-acid bacteria and vaginitis pathogens were centrifuged at 13,000 rpm for 5 min and the supernatant was decanted, after which the precipitated microorganism cells were washed using 1×PBS. After washing was repeated twice, the microorganisms were each suspended using 1×PBS until an absorbance OD600 of 1.0 was obtained. The lactic-acid bacteria suspension and the vaginitis pathogens were mixed at the same volume ratio, homogenized through vortexing, and allowed to stand, after which the supernatant of the mixed solution was carefully obtained at 1, 4, and 8 hr, and the absorbance thereof was measured. The suspension without mixing the microorganisms was used as a control. Based on the measured absorbance, coaggregation was calculated using the following equation. Here, ODpatho represents the absorbance of the vaginitis pathogen, ODLAB represents the absorbance of the lactic-acid bacteria, and ODmix represents the absorbance of the mixed solution of microorganisms. Coaggregation (%)={(ODpatho+ODLAB)/2−ODmix}/(ODpatho+ODLAB)/2

Test [5] deals with Gardnerella vaginalis KCTC5096 (GV). Described as above. It is filed as cell-based. As to conditions: time given only for CA (8 hr). Here is the method:
as §1

Test [6] relates to Candida albicans KCTC7678 (CA). Put plainly: Disinfection power through coculture. To be noted: for disinfection power on CA: coculture 1:1, at 24 hr; for CA in coculture: coculture 1:1, at 48 hr. The format is cell-based. Here is the method: (§2) The anti-vaginitis effect of the lactic-acid bacteria of the present disclosure was tested for disinfection power on the vaginitis pathogen through coculture. In the anti-CA experiment, CA at a concentration of about 2.5×10^6 CFU/ml and each of lactic-acid bacteria at a concentration of about 2.5×10^6 CFU/ml were mixed at a ratio of 1:1, and coculture thereof was carried out in a culture medium of YM and MRS mixed at 1:1. In the anti-GV experiment, GV at a concentration of about 1.0×10^8 CFU/ml and each of lactic-acid bacteria at a concentration of about 1.0×10^8 CFU/ml were mixed at a ratio of 1:1 and then inoculated into a 10% horse-serum BHI broth. Each coculture experiment was conducted for 48 hr, and portions of the samples were collected initially and every 24 hr, and a viable cell count was taken through a serial dilution method and a plate-spreading method. In the anti-CA experiment, in order to measure CA alone, a YM plate medium containing ampicillin at a concentration of 100 μg/ml was used. In the anti-GV experiment, CFU was measured by distinguishing the colony forms between GV and lactic-acid bacteria using a 5% rabbit blood BHI plate medium.

Test [7] relates to Gardnerella vaginalis KCTC5096 (GV). Kind of test: Disinfection power through coculture. The format is cell-based. To be noted: coculture 1:1, at 24 hr. As for the experimental part: as §2
The subject of test [8] is TNF-α in mouse macrophage cell line RAW264.7. Kind of test: TNF-α ELISA, RAW264.7 cells treated with lactic-acid bacteria lysate. It is filed as cell-based. As to conditions: lysate 100 μg/ml and 500 μg/ml, 24 hr. Here is the method:
In order to measure the immunological effects of K2, K6 and K8 lactic-acid bacteria, a cytokine quantification experiment using cells was performed. The cells that were used were a mouse macrophage cell line RAW264.7, and the medium used for each cell experiment was a Gibco® Dulbecco's Modified Eagle Medium (DMEM, Gibco, USA) supplemented with 10% fetal bovine serum (Gibco, USA) and 1% penicillin/streptomycin cocktail (Sigma-Aldrich, Germany). RAW264.7 cells cultured at about 80-90% confluency before material treatment were recovered and seeded in an amount of 1×10^6 cells per well of a 24-well plate. After seeding, culture was carried out in an environment of 37° C. and 5% CO2 for 24 hr in order to realize attachment to the 24-well plate and stabilization thereof. Each well was treated with the lactic-acid bacteria lysate at concentrations of 100 μg/ml and 500 μg/ml, and 1 μg/ml of lipopolysaccharide (LPS, Sigma-Aldrich, Germany) was used as a positive control, and an experimental group not treated with any material was used as a negative control. The cells were cultured at 37° C. and 5% CO2 for 24 hr after material treatment, and the cell culture solution was recovered, followed by enzyme-linked immunosorbent assay (ELISA) for IL-6 and TNF-α. Measurement was performed for IL-6 using a Mouse IL-6 Quantikine ELISA Kit (R&D systems, USA) and for TNF-α using a Mouse TNF-alpha Quantikine ELISA Kit (R&D systems, USA).

Regarding “Lactobacillus plantarum ATG-K2 [Lb. plantarum ATG-K2]”, the “bile salt hydrolase (BSH) activity” value in test [1] is “exhibited BSH activity”. The “ability to produce hydrogen peroxide” value in test [2] is listed as “produced hydrogen peroxide”. In test [3], the ABTS radical-scavenging activity result was “exhibited radical-scavenging activity”. Also, the “coaggregation with CA” value in test [4] is given as 70.73%. Further, the “coaggregation with GV” value in test [5] amounted to 32.72%. In test [6], the “disinfection power on CA” value is on record as 99.03% and the CA in coculture entry was “completely disappeared”. Also, the “disinfection power on GV” value in test [7] is listed as 87.37%. Also, the “TNF-α production compared to the control” value in test [8] was “induced”.

For “Lactobacillus plantarum ATG-K6 [Lb. plantarum ATG-K6]”, the “bile salt hydrolase (BSH) activity” value in test [1] is given as “exhibited BSH activity”. Moreover, the “ability to produce hydrogen peroxide” value in test [2] is reported as “produced hydrogen peroxide”. In test [3], the ABTS radical-scavenging activity result is “exhibited radical-scavenging activity” and the “antioxidant activity, ranking among strains” value was “greatest effect”. Besides, the “coaggregation with CA” value in test [4] is on record as 58.57%. Besides, in test [5], the “coaggregation with GV” value stood at 30.39%. In test [6], the “disinfection power on CA” value stood at 99.49% and the CA in coculture result is on record as “completely disappeared”. In addition, the “disinfection power on GV” value in test [7] amounted to 92.50%. Besides, in test [8], the “TNF-α production compared to the control” value is “induced”.

Regarding “Lactobacillus plantarum ATG-K8 [Lb. plantarum ATG-K8]”, in test [1], the “bile salt hydrolase (BSH) activity” value is on record as “exhibited BSH activity”. Further, the “ability to produce hydrogen peroxide” value in test [2] is “produced hydrogen peroxide”. In addition, in test [3], the ABTS radical-scavenging activity result was “exhibited radical-scavenging activity” and the “antioxidant activity, ranking among strains” value is reported as “next-greatest antioxidant activity”. In addition, in test [4], the “coaggregation with CA” value is given as 57.88%. Besides, the “coaggregation with GV” value in test [5] is recorded as 20.45%. Besides, in test [6], the “disinfection power on CA” value came out at 99.53% and the CA in coculture result was “completely disappeared”. In addition, the “disinfection power on GV” value in test [7] was 93.71%. In test [8], the “TNF-α production compared to the control” value is recorded as “induced”.

(Values after US12157882B2, “Lactobacillus plantarum strain ATG-K2, ATG-K6 or ATG-K8, and composition for preventing or treating vaginitis comprising same” (ATOGEN CO., LTD, priority 2018, dated 2024).)
